# Article PMC7529893, “Structural basis for substrate recognition and chemical inhibition of oncogenic MAGE ubiquitin ligases” (Nature Communications, 2020)
# Biological target: T1, MAGE-A11:PCF11 interaction (GST-MAGE-A11 and FAM-PCF11_4) (Homo sapiens, UniProt P43364)
# T1 construct: GST-MAGE-A11 MHD (human MAGE-A11 MHD amino acid 218-429); made in house; host or cells: E. coli BL21(DE3)
# T1 sequence (P43364 218-429): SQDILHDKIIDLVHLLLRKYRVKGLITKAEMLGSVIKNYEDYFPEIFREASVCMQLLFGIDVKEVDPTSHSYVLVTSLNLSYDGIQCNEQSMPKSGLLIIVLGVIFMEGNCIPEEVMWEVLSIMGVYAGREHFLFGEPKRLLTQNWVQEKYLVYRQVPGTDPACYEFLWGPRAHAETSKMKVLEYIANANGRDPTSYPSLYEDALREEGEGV
# Assay: TR-FRET primary / single point screen at 15 µM
# Assay type: binding
# Conditions: single point TR-FRET screening of 797 quinoline compounds against MAGE-A11:PCF11
# Description: The TR-FRET assay buffer with a formula of 50 mM Tris pH 7.5, 20 mM MgCl2, 0.1 mg/ml BSA and 1 mM DTT was freshly prepared before each experiment. All TR-FRET assays were performed in black 384-well plates with 20 µl/well assay volume in the TR-FRET assay buffer at room temperature (~25 °C). All peptides or compounds were solubilized in DMSO. To test the competitive activity of peptides or compounds against the interaction between GST-MAGE-A11 MHD and FAM-PCF11_4 peptide, 10 µl/well peptide or compound at specified concentration was dispensed into a black 384-well low volume plate, followed by 5 µl/well FAM-PCF11_4 (800 nM), 5 µl/well Tb-anti-GST (20 nM), and GST-MAGE-A11 MHD (20 nM). The assay components in each well was then mixed by shaking the plate on an IKA MTS 2/4 digital microtiter plate shaker (IKA Works; Wilmington, NC, USA) for 1 min. The plate was further centrifuged in an Eppendorf 5810 centrifuge with an A-4-62 swing-bucket rotor (Eppendorf AG, Hamburg, Germany) at 201 g for 30 s. The plate was then incubated for 90 min with a lid to avoid light exposure to the assay components. After incubation, the fluorescent emission signals at 520 nm and 490 nm channels of individual wells were measured with a PHERAstar FS plate reader (BMG Labtech; Durham, NC, USA) by using a 340 nm excitation filter, 100 µs delay time, and 200 µs integration time. The TR-FRET fluorescence emission ratio (TR-FRET signal) for each well was presented as 10,000 × 520 nm/490 nm, which was used directly for curve fitting, or further converted to %Inhibition based on the respective positive and negative controls. The graphic software GraphPad Prism 4.81 (GraphPad Software; La Jolla, CA, USA) was used to generate curves and derive IC50 values of tested peptides or compounds, if applicable. TR-FRET screen for identifying MAGE-A11 small molecule inhibitors was performed as follows. The primary one-concentration screening and subsequent 10 or 20-concentration dose-response tests were accomplished with an automated High Throughput Screening system (HighRes Biosolutions, Beverly, MA)[30]. In the primary screening, 15 µl/well FAM-PCF11_4 (267 nM) was first dispensed with a Multidrop Combi Reagent Dispenser (Thermo Fisher Scientific, Waltham, MA) to black 384-well low-volume assay plates. The plates were spun down with a Velocity11 VSpin microplate centrifuge (Agilent Technologies, Santa Clara, CA). In total, 30 nl/well of 10 mM compound/DMSO solutions, or DMSO alone, were transferred from compound plates (the St. Jude FDA drug and bioactive library, Drug-like library and Lead-like library) or a control plate to the assay plates with a Pin Tool (V&P Scientific, San Diego, CA). The compounds were arrayed in columns 3–12 and columns 15–24 of compound plates. The controls were arrayed in columns 1, 2, 13, and 14 of a compound plate. In all, 5 µl/well Tb-anti-GST (20 nM) and GST-MAGE-A11 (20 nM) or 5 µl/well Tb-anti-GST (20 nM) alone was then dispensed to selected wells with a Multidrop Combi Reagent Dispenser. The final assay volume was 20 µl/well. […] The final tested compound concentration was 15 µM. The final FAM-PCF11_4 concentration was 200 nM and the final Tb-anti-GST concentration was 5 nM. The final GST-MAGE-A11 concentration was 5 nM except for those selected positive control wells in which GST-MAGE-A11 was not presented. The plates were then shaken with a big bear shaker (Big Bear Automation, Santa Clara, California) and spun down with the Velocity11 VSpin microplate centrifuge for 20 s. The plates were then incubated at room temperature in a Liconic incubator (Liconic US, Woburn, MA) for 90 min. The TR-FRET signals for individual wells were measured with a PHERAstar FS plate reader. The %Inhibition of each tested inhibitor was calculated by using Eq. 1. Those inhibitors with %Inhibition >30% in the primary screening were selected for further dose-response test, along with additional newly synthesized compounds. […]
row,Compound,percent inhibition (TR-FRET)
1,COc1ccc2nc3cc(Cl)ccc3c(NCCCNCc3cc4ccccc4s3)c2c1 [SJ000521000],-220.357
2,COc1cccc(CN(CCCCNc2ccnc3cc(Cl)ccc23)Cc2ccccc2)c1O [SJ000312694],7.676
3,CCCN(CCCNc1c2ccc(Cl)cc2nc2ccc(OC)cc12)Cc1cn(C)c2ccccc12 [SJ000522964],-162.244
4,COc1ccc2nc3cc(Cl)ccc3c(NCCCNCc3cc(Br)cs3)c2c1 [SJ000520996],-287.642
5,CCCN(CCCNc1c2ccc(Cl)cc2nc2ccc(OC)cc12)Cc1ccccc1C(=O)O [SJ000520951],-258.592
6,COc1ccc2ncc(S(=O)(=O)c3ccccc3)c(N3CCN(C)CC3)c2c1 [SJ000083947],-2.0938
7,CCCCN(CCCCNc1ccnc2cc(Cl)ccc12)Cc1ccccc1 [SJ000357538],27.6387
8,Cc1cc(C)c(CN2CCC(Nc3ccnc4cc(Cl)ccc34)CC2)c(C)c1 [SJ000523084],11.7451
9,CCN1CCN(c2c(C(=O)c3ccc(C)cc3)cnc3ccc(OC)cc23)CC1 [SJ000247282],3.9003
10,CC(C)CN(CCCCNc1ccnc2cc(Cl)ccc12)Cc1ccccc1 [SJ000357470],25.4682
11,CN1CCN(c2c(S(=O)(=O)c3ccccc3)cnc3ccc(Cl)cc23)CC1 [SJ000083950],-5.3743
12,CCCN(CCCNc1c2ccc(Cl)cc2nc2ccc(OC)cc12)CC1CC1 [SJ000520936],-271.356
13,COc1ccc(O)c(CN2CCC(Nc3ccnc4cc(Cl)ccc34)CC2)c1 [SJ000357527],7.779
14,COc1ccc2nc3cc(Cl)ccc3c(NCCCNCc3ccccc3F)c2c1 [SJ000523034],-353.834
15,Clc1ccc2c(NC3CCN(Cc4ccccc4)CC3)ccnc2c1 [SJ000357524],6.554
16,CCCN(CCCNc1c2ccc(Cl)cc2nc2ccc(OC)cc12)Cc1ccc(OC)cc1 [SJ000520943],-241.432
17,CCOC(=O)c1cnc2ccc(C(=O)OC)cc2c1NCCN1CCOCC1 [SJ000127079],-7.813
18,CCc1ccc(CN(CCCCNc2ccnc3cc(Cl)ccc23)Cc2ccccc2)cc1 [SJ000520443],29.9089
19,CCCN(CCCNc1c2ccc(Cl)cc2nc2ccc(OC)cc12)CCCc1ccccc1 [SJ000520958],-267.24
20,CCOc1ccc2ncc(C(=O)c3ccc(C)cc3)c(N3CCN(C)CC3)c2c1 [SJ000247254],-10.6078
21,COc1ccc(-c2csc(N3CCN(c4cc(C)nc5ccccc45)CC3)n2)cc1OC [SJ000114009],-53.4343
22,O=C(O)CCCNC(=O)CNc1c2ccccc2nc2ccccc12 [SJ000016432],9.598
23,COc1ccc(F)c(CN(CCCCNc2ccnc3cc(Cl)ccc23)Cc2ccccc2)c1 [SJ000520441],14.5458
24,Clc1ccc2c(NCCCCN(CCc3ccccc3)Cc3ccccc3)ccnc2c1 [SJ000361211],23.3769
25,COC(=O)CN1CCN(c2cc(C)nc3ccccc23)C(C)C1=O (centres unmarked) [SJ000516812],3.503
26,COc1cccc(CN2CCC(Nc3ccnc4cc(Cl)ccc34)CC2)c1 [SJ000523107],3.1492
27,Cc1ccc(S(=O)(=O)c2cnc3ccc(Cl)cc3c2N2CCN(c3ccccc3)CC2)cc1 [SJ000117050],-3.321
28,CCOc1ccc2ncc(S(=O)(=O)c3ccccc3)c(N3CCN(C)CC3)c2c1 [SJ000083948],-3.938
29,CCCN(CCCNc1c2ccc(Cl)cc2nc2ccc(OC)cc12)CC(C)CC (centres unmarked) [SJ000520959],-264.817
30,CCCN(CCCNc1c2ccc(Cl)cc2nc2ccc(OC)cc12)Cc1c[nH]c2ccccc12 [SJ000522978],-166.235

# Same assay, conditions: single point TR-FRET screening of quinoline compounds against MAGE-A11:PCF11; 15 µM
row,Compound,percent inhibition (TR-FRET)
1,CCCN(CCCNc1c2ccc(Cl)cc2nc2ccc(OC)cc12)Cc1cccnc1 [SJ000575152],-23.4028
2,CC(C)(C)c1ccc(Oc2ccc3c(NCCCNCc4ccco4)ccnc3c2)cc1 [SJ000311234],57.5354
3,CCCN(CCCNc1ccnc2cc(Cl)ccc12)Cc1cc(OC)ccc1F [SJ000522996],26.6585
4,CCCN(CCCNc1ccnc2cc(Cl)ccc12)Cc1c(F)c(F)c(F)c(F)c1F [SJ000522748],19.8658
5,O=[N+]([O-])c1ccc(CN(CCCNc2ccnc3cc(Cl)ccc23)Cc2ccccc2)cc1 [SJ000361179],20.1971
6,CCCN(CCCNc1ccnc2cc(C(F)(F)F)ccc12)Cc1ccccc1C(=O)O [SJ000523073],16.8563
7,CSC(C)CCNCCCNc1ccnc2cc(Cl)ccc12 (centres unmarked) [SJ000361121],13.499
8,CCCN(CCCNc1c2ccc(Cl)cc2nc2ccc(OC)cc12)Cc1ccc2[nH]ccc2c1 [SJ000522732],39.4714
9,Clc1ccc2c(NCCCNCC3CC3)ccnc2c1 [SJ000361101],11.4651
10,CCCN(CCCNc1ccnc2cc(Cl)ccc12)CCc1ccccc1 [SJ000357574],4.8836
11,FC(F)(F)c1ccc2c(NCCCNCc3cc4ccccc4s3)ccnc2c1 [SJ000521060],35.6327
12,CCCN(CCCNc1ccnc2cc(Cl)ccc12)Cc1ccccc1N [SJ000522747],15.4273
13,FC(F)(F)c1ccccc1CN(CCCNc1ccnc2cc(Cl)ccc12)Cc1ccccc1 [SJ000361168],2.509
14,Cc1ccc(F)cc1CN(CCCNc1ccnc2cc(Cl)ccc12)Cc1ccccc1 [SJ000520458],29.7727
15,Clc1ccc2c(NCCCN(Cc3ccccc3)Cc3ccc[nH]3)ccnc2c1 [SJ000522717],20.4621
16,COC(=O)CCCCCN(CCCNc1ccnc2cc(Cl)ccc12)Cc1ccccc1 [SJ000520429],17.1364
17,Cn1ccnc1CNCCCNc1ccnc2cc(C(F)(F)F)ccc12 [SJ000521068],10.1938
18,CCCN(CCCNc1ccnc2cc(C(F)(F)F)ccc12)CCOCc1ccccc1 [SJ000521011],25.8235
19,CCCN(CCCNc1ccnc2cc(Cl)ccc12)Cc1ccccc1 [SJ000357431],19.1371
20,CCCN(CCCNc1ccnc2cc(C(F)(F)F)ccc12)Cc1ccc(F)c(F)c1 [SJ000361272],13.8395
21,CCCN(CCCCCC(=O)OC)CCCNc1ccnc2cc(C(F)(F)F)ccc12 [SJ000575191],5.6
22,FC(F)(F)c1ccc2c(NCCCNCC3CC3)ccnc2c1 [SJ000361108],22.8076
23,FC(F)(F)Oc1ccc(CN(CCCNc2ccnc3cc(Cl)ccc23)Cc2ccccc2)cc1 [SJ000520460],25.0481
